# What was measured:
# [1] = target: T1, 5-hydroxytryptamine receptor 2C (Homo sapiens) (UniProt P28335); test: Displacement of [3H]mesulergine from 5HT2C receptor (unknown origin) at 10 uM
# T1 sequence (whole entry): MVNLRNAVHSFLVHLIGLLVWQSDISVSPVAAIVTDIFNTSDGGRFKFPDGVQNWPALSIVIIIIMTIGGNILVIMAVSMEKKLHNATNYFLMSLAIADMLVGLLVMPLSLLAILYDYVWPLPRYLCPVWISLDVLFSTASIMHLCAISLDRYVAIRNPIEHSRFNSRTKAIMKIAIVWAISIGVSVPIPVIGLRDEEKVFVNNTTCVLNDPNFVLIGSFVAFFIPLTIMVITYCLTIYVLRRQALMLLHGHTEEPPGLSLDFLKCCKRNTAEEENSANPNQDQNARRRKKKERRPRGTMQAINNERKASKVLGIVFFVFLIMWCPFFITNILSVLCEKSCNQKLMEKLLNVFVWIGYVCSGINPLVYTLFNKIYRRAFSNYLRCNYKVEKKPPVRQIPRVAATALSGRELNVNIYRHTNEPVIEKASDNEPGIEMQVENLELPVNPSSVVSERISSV
# [2] = target: 5-hydroxytryptamine receptor 7 (Homo sapiens) (UniProt P34969); test: Displacement of [3H]LSD from 5HT7 receptor (unknown origin) at 10 uM
# [3] = target: Alpha-1A adrenergic receptor (Homo sapiens) (UniProt P35348); test: Binding affinity to alpha1A adrenoceptor (unknown origin) at 10 uM
# [4] = target: Alpha-1B adrenergic receptor (Homo sapiens) (UniProt P35368); test: Binding affinity to alpha1B adrenoceptor (unknown origin) at 10 uM
# Chain of Alpha-1B adrenergic receptor (Homo sapiens) (P35368 whole entry): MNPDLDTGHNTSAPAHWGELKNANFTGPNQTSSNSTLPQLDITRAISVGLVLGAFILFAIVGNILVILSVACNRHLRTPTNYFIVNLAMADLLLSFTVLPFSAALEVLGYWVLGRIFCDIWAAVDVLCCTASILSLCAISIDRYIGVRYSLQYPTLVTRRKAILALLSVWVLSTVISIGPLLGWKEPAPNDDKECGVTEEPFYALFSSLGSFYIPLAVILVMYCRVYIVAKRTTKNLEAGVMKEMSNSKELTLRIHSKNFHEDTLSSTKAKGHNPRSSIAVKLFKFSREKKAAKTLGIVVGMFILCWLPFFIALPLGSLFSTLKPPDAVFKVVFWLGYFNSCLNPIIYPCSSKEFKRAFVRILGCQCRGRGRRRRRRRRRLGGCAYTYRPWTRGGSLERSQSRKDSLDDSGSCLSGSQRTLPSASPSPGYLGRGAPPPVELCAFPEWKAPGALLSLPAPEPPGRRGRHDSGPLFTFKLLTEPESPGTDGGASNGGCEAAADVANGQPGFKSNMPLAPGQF
# [5] = target: Alpha-1D adrenergic receptor (Homo sapiens) (UniProt P25100); test: Binding affinity to alpha1D adrenoceptor (unknown origin) at 10 uM
# [6] = target: Beta-1 adrenergic receptor (Homo sapiens) (UniProt P08588); test: Binding affinity to beta1 adrenoceptor (unknown origin) at 10 uM
# [7] = target: Beta-2 adrenergic receptor (Homo sapiens) (UniProt P07550); test: Binding affinity to beta2 adrenoceptor (unknown origin) at 10 uM
# [8] = target: Beta-3 adrenergic receptor (Homo sapiens) (UniProt P13945); test: Binding affinity to beta3 adrenoceptor (unknown origin) at 10 uM
# [9] = target: Cannabinoid receptor 2 (Homo sapiens) (UniProt P34972); test: Binding affinity to CB2 receptor (unknown origin) at 10 uM
# [10] = target: D(1A) dopamine receptor (Homo sapiens) (UniProt P21728); test: Binding affinity to dopamine D1 receptor (unknown origin) at 10 uM
# Chain of D(1A) dopamine receptor (Homo sapiens) (P21728 whole entry): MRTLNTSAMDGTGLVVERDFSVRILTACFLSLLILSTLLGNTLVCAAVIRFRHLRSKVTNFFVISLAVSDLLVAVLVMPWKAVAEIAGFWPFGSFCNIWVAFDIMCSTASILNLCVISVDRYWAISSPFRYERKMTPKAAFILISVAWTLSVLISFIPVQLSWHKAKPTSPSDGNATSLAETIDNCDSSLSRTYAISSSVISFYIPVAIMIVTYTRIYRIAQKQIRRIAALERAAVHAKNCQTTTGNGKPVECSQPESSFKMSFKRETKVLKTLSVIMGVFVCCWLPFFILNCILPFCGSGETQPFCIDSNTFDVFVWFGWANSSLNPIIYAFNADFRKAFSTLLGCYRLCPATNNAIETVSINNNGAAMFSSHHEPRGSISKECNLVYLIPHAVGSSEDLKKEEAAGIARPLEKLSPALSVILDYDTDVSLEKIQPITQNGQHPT
# [11] = target: D(2) dopamine receptor (Homo sapiens) (UniProt P14416); test: Binding affinity to dopamine D2 receptor (unknown origin) at 10 uM
# [12] = target: D(3) dopamine receptor (Homo sapiens) (UniProt P35462); test: Binding affinity to dopamine D3 receptor (unknown origin) at 10 uM
# [13] = target: D(4) dopamine receptor (Homo sapiens) (UniProt P21917); test: Binding affinity to dopamine D4 receptor (unknown origin) at 10 uM
# [14] = target: D(1B) dopamine receptor (Homo sapiens) (UniProt P21918); test: Binding affinity to dopamine D5 receptor (unknown origin) at 10 uM
# [15] = target: Delta-type opioid receptor (Homo sapiens) (UniProt P41143); test: Binding affinity to DOR (unknown origin) at 10 uM
# [16] = target: GABA-A receptor; agonist GABA site (Homo sapiens) (UniProt P14867+P47870+P28472+P48169+P34903+P18505+P47869+P31644+Q16445); test: Binding affinity to GABAA receptor (unknown origin) at 10 uM; format: protein-complex assay
# [17] = target: Histamine H1 receptor (Homo sapiens) (UniProt P35367); test: Binding affinity to histamine H1 receptor (unknown origin) at 10 uM
# [18] = target: Histamine H2 receptor (Homo sapiens) (UniProt P25021); test: Binding affinity to histamine H2 receptor (unknown origin) at 10 uM
# [19] = target: Histamine H3 receptor (Homo sapiens) (UniProt Q9Y5N1); test: Binding affinity to histamine H3 receptor (unknown origin) at 10 uM
# [20] = target: Histamine H4 receptor (Homo sapiens) (UniProt Q9H3N8); test: Binding affinity to histamine H4 receptor (unknown origin) at 10 uM
# [21] = target: Kappa-type opioid receptor (Homo sapiens) (UniProt P41145); test: Binding affinity to KOR (unknown origin) at 10 uM
# [22] = target: Muscarinic acetylcholine receptor M2 (Homo sapiens) (UniProt P08172); test: Binding affinity to muscarinic M2 receptor (unknown origin) at 10 uM
# [23] = target: Muscarinic acetylcholine receptor M3 (Homo sapiens) (UniProt P20309); test: Binding affinity to muscarinic M3 receptor (unknown origin) at 10 uM
# [24] = target: Muscarinic acetylcholine receptor M4 (Homo sapiens) (UniProt P08173); test: Binding affinity to muscarinic M4 receptor (unknown origin) at 10 uM
# Chain of Muscarinic acetylcholine receptor M4 (Homo sapiens) (P08173 whole entry): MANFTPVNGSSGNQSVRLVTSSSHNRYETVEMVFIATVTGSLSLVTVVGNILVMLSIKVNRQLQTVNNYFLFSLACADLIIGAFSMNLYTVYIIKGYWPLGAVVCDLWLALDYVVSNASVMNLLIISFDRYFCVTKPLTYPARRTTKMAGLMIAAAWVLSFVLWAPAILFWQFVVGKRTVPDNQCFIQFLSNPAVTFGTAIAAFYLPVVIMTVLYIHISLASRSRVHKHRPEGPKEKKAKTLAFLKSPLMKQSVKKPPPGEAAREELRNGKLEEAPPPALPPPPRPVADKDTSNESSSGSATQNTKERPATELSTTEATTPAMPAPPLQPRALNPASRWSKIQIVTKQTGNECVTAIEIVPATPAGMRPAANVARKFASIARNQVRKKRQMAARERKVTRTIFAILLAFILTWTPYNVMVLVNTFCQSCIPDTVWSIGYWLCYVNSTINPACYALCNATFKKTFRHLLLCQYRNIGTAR
# [25] = target: Muscarinic acetylcholine receptor M5 (Homo sapiens) (UniProt P08912); test: Binding affinity to muscarinic M5 receptor (unknown origin) at 10 uM
# [26] = target: Mu-type opioid receptor (Homo sapiens) (UniProt P35372); test: Binding affinity to MOR (unknown origin) at 10 uM
# Chain of Mu-type opioid receptor (Homo sapiens) (P35372 whole entry): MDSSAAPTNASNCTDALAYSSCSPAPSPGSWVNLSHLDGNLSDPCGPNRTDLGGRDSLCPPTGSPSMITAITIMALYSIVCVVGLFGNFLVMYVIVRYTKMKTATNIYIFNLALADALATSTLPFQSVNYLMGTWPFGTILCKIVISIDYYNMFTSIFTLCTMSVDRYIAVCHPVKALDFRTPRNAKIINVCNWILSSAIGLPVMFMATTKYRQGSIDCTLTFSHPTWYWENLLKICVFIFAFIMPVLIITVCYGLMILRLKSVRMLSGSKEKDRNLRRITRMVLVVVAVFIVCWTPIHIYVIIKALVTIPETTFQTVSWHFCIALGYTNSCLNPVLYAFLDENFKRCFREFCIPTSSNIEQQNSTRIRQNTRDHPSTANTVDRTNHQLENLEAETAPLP
# [27] = target: Sodium-dependent noradrenaline transporter (Homo sapiens) (UniProt P23975); test: Binding affinity to NET (unknown origin) at 10 uM
# Chain of Sodium-dependent noradrenaline transporter (Homo sapiens) (P23975 whole entry): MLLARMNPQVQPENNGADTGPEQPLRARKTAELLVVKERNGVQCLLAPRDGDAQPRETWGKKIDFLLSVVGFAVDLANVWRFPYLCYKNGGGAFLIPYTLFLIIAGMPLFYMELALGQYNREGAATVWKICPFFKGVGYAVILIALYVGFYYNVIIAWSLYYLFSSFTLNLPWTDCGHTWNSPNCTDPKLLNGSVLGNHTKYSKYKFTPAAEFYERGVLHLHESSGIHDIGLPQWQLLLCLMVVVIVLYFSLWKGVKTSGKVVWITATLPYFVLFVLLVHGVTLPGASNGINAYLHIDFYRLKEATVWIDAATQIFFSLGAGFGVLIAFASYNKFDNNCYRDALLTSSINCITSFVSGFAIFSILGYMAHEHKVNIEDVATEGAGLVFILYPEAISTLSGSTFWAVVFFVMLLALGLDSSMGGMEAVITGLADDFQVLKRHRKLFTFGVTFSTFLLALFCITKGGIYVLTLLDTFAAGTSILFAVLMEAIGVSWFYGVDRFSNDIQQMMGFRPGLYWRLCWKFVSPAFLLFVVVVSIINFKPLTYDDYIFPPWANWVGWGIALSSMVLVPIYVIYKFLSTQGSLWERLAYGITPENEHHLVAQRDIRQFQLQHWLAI
# [28] = target: Sodium-dependent serotonin transporter (Homo sapiens) (UniProt P31645); test: Binding affinity to SERT (unknown origin) at 10 uM
# Chain of Sodium-dependent serotonin transporter (Homo sapiens) (P31645 whole entry, looked up): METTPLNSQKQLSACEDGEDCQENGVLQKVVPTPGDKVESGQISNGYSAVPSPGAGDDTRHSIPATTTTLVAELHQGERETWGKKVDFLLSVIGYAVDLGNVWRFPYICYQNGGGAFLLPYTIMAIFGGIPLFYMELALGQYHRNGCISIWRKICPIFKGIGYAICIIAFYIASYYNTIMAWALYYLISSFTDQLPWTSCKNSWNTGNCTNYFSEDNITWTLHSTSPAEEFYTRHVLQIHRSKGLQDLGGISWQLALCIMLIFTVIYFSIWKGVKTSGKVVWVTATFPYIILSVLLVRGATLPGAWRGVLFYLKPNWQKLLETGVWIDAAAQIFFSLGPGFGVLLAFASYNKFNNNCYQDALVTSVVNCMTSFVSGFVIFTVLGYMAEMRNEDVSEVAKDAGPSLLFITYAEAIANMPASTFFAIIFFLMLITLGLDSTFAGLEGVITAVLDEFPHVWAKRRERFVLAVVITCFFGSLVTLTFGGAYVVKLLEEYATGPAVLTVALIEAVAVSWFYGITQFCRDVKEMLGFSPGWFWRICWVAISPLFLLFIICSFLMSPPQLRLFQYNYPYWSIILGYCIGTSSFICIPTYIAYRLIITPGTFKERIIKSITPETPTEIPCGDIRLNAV
# [29] = target: Sigma non-opioid intracellular receptor 1 (Homo sapiens) (UniProt Q99720); test: Binding affinity to sigma-1 receptor (unknown origin) at 10 uM
# Chain of Sigma non-opioid intracellular receptor 1 (Homo sapiens) (Q99720 whole entry): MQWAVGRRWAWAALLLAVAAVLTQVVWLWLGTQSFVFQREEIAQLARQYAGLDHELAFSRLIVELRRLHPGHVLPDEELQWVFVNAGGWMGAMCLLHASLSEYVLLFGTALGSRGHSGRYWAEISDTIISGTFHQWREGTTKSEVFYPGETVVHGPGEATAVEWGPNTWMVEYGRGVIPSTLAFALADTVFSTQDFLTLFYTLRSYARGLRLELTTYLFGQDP
# [30] = target: 5-hydroxytryptamine receptor 6 (Homo sapiens, UniProt P50406); test: Binding affinity to 5HT6 receptor (unknown origin)
# Chain of 5-hydroxytryptamine receptor 6 (P50406 whole entry): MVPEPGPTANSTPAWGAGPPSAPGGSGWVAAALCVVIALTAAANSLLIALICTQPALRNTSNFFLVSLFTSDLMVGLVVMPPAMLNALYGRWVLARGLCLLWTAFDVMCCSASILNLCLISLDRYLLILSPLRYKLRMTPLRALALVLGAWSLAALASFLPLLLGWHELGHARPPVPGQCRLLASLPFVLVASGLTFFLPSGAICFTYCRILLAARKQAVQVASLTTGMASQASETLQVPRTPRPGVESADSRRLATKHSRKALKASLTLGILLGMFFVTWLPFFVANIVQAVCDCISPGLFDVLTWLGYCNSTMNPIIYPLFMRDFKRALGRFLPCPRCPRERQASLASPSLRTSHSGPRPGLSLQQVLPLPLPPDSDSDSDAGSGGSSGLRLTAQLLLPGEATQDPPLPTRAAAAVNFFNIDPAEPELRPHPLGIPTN
# [31] = target: Alpha-2B adrenergic receptor (Homo sapiens, UniProt P18089); test: Binding affinity to alpha2B adrenoceptor (unknown origin)
# Chain of Alpha-2B adrenergic receptor (P18089 whole entry): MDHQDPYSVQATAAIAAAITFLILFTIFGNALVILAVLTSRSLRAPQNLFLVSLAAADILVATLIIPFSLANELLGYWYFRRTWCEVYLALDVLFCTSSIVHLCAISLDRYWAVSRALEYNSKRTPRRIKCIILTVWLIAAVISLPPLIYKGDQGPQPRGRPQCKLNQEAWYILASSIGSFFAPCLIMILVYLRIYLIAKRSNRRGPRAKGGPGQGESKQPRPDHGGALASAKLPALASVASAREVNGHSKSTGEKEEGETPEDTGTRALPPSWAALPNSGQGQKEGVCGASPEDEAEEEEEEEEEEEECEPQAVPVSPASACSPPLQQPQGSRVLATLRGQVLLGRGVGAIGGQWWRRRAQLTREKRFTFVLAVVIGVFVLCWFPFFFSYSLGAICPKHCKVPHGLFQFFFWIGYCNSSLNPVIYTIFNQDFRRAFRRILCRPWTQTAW
# [32] = target: Muscarinic acetylcholine receptor M1 (Homo sapiens, UniProt P11229); test: Binding affinity to muscarinic M1 receptor (unknown origin)
# Chain of Muscarinic acetylcholine receptor M1 (P11229 whole entry): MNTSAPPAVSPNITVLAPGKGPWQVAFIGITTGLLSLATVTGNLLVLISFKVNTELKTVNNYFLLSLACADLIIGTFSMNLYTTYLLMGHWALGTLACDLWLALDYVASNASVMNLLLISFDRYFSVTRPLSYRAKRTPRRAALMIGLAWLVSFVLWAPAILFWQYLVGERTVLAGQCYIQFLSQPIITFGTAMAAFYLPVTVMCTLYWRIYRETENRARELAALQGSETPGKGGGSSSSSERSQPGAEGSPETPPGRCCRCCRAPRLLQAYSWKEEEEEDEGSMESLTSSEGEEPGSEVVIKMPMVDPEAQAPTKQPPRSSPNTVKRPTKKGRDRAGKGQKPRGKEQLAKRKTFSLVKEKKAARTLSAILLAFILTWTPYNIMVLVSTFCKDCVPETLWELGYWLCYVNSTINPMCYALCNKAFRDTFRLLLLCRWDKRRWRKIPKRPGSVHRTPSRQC
# [33] = target: 5-hydroxytryptamine receptor 2B (Homo sapiens, UniProt P41595); test: Displacement of [3H]LSD from 5HT2B receptor (unknown origin)
smiles,measurement,setting,value
COc1cc2c3c(c1OC)-c1cc4c(cc1CC3N(C)CC2c1ccccc1)OCO4 (stereo not drawn),inhibition,[1],31.9%
same,inhibition,[2],36.1%
same,inhibition,[3],< 50%
same,inhibition,[4],< 50%
same,inhibition,[5],< 50%
same,inhibition,[6],< 50%
same,inhibition,[7],< 50%
same,inhibition,[8],< 50%
same,inhibition,[9],< 50%
same,inhibition,[10],< 50%
same,inhibition,[11],< 50%
same,inhibition,[12],< 50%
same,inhibition,[13],< 50%
same,inhibition,[14],< 50%
same,inhibition,[15],< 50%
same,inhibition,[16],< 50%
same,inhibition,[17],< 50%
same,inhibition,[18],< 50%
same,inhibition,[19],< 50%
same,inhibition,[20],< 50%
same,inhibition,[21],< 50%
same,inhibition,[22],< 50%
same,inhibition,[23],< 50%
same,inhibition,[24],< 50%
same,inhibition,[25],< 50%
same,inhibition,[26],< 50%
same,inhibition,[27],< 50%
same,inhibition,[28],< 50%
same,inhibition,[29],< 50%
same,Ki,[30],627 nM
same,Ki,[31],3.22 µM
same,Ki,[32],> 10 µM
same,Ki,[33],96 nM

# — ChEMBL document CHEMBL3608284, “C4 phenyl aporphines with selective h5-HT(2B) receptor affinity” (Bioorg Med Chem Lett, 2015)
